This note sets out measurements from patent US20250051313A1, “PHTHALAZINE DERIVATIVES AS PYRUVATE KINASE MODULATORS” (Sitryx Therapeutics Limited, priority 2021, published 2025).

For assay [1], the target named is recombinant human PKM2 (Homo sapiens (Human), UniProt P14618). The assay is described as follows: Human PKM2 activation assay (Kinase-Glo Plus luminescence). It is filed as biochemical. Conditions: for Emax: read-out: hPKM2 Emax. The procedure: (§1) Measuring in vitro activation of recombinant human PKM2 Compound activation of recombinant human PKM2 pyruvate kinase activity was determined by biochemical assay. N-terminal His-tagged hPKM2 was sourced from R&D Systems and its substrates phosphoenolpyruvate (PEP) and ADP from Sigma-Aldrich and 2Bscientific Ltd, respectively. The Kinase-Glo® Plus luminescence assay was from Promega. All other reagents were from Sigma-Aldrich. Test Compounds were prepared as 10 mM DMSO stocks and dilution series prepared in DMSO for direct dilution into Assay Buffer comprising 50 mM imidazole, 50 mM KCl, 7 mM MgCl2, 0.01% Tween20, 0.05% BSA (pH 7.2).
Human PKM2 was diluted into Assay Buffer comprising 50 mM imidazole, 50 mM KCl, 7 mM MgCl2, 0.01% Tween20, 0.05% BSA (pH 7.2) to a final concentration of 5 pM. Enzyme-Assay Buffer mix was dispensed into a 384-well shallow-well white-walled plate (PerkinElmer) and Test Compounds added by acoustic dispense (Echo®, Labcyte Inc.).
(§2) After 60 minutes' incubation on an orbital shaker (300 rpm, 26° C.), enzyme activity was quantified by the luminescent detection of generated ATP. Kinase-Glo® Plus reagent was added to each well and the plates incubated for a further 15 minutes on an orbital shaker in the dark (300 rpm, 26° C.) before luminescence measurement on a plate reader (PHERAstar® FSX, BMG Labtech).
(§3) Percentage activation was calculated by normalising […] signals to plate LOW (DMSO vehicle) and HIGH (5 μM TEPP-46) controls. EC50 and Emax values were determined from 4-parameter logistic fits of compound concentration-response curves.

The target in assay [2] is recombinant human PKLR (Homo sapiens (Human), UniProt P30613). The assay can be described thus: Human PKLR activation assay (Kinase-Glo Plus luminescence). It is filed as biochemical. The procedure: as §1, with “PKLR” for “PKM2”, “enzyme” for “hPKM2”
Human PKLR was diluted into Assay Buffer to a final concentration of 5 pM. […]
as §2, §3

Assay [3] addresses pyruvate kinase (PK) activity in human CD4+ T cell lysates (Homo sapiens, UniProt P14618). The assay is described as follows: CD4+ T cell pyruvate kinase assay. In kind it is cell-based. The note with it: human CD4+ T cells incubated with compound 20 minutes, then lysed; ΔAbsorbance OD570. The procedure:
Compound activation of pyruvate kinase in human CD4+ T cell lysates was determined by biochemical assay. Primary CD4+ T cells were used rather than cancer cell lines to improve the disease relevance of the assay. The PK assay was sourced from Abcam. All other reagents were sourced from ThermoFisher. Test compounds were prepared as 10 mM DMSO stocks and dilution series prepared in DMSO for addition to intact CD4+ T cells cultured in RPMI media containing 10% FBS.
Human CD4+ T cells were incubated with compound for 20 minutes and then washed twice in 1×PBS before resuspension in Abcam PK lysis buffer to prepare cell lysates. 10 μl PK assay Reaction Mix was added per well, including OXIRED™ PROBE. The plates were read using a BMG Labtech Pherastar plate reader at OD570 nm in kinetic mode for […] (25 cycles of 2 minutes) at 25° C., protecting from light.
Plates were blank-subtracted and ΔAbsorbance calculated by subtracting the first plate read within the linear range from the plate read at the timepoint of interest. PK activity is expressed as ΔAbsorbance and plotted against log [Compound].

Read-outs that look alike come from different tables or passages of the source.

recombinant human PKM2, sequence (P14618 whole entry): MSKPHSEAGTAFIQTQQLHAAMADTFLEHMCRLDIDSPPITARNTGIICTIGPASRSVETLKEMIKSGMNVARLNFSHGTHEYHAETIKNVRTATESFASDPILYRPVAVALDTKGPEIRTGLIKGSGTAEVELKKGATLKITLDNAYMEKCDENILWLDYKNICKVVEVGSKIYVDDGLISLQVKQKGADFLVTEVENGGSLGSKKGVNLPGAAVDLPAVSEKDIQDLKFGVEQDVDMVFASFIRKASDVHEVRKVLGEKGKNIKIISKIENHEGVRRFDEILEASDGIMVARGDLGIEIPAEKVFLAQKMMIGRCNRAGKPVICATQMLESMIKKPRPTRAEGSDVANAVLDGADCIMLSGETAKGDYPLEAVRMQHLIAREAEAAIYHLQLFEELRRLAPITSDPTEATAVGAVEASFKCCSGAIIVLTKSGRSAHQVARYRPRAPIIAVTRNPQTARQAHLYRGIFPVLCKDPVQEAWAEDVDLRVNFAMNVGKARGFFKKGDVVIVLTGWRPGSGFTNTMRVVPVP
recombinant human PKLR, sequence (P30613 whole entry): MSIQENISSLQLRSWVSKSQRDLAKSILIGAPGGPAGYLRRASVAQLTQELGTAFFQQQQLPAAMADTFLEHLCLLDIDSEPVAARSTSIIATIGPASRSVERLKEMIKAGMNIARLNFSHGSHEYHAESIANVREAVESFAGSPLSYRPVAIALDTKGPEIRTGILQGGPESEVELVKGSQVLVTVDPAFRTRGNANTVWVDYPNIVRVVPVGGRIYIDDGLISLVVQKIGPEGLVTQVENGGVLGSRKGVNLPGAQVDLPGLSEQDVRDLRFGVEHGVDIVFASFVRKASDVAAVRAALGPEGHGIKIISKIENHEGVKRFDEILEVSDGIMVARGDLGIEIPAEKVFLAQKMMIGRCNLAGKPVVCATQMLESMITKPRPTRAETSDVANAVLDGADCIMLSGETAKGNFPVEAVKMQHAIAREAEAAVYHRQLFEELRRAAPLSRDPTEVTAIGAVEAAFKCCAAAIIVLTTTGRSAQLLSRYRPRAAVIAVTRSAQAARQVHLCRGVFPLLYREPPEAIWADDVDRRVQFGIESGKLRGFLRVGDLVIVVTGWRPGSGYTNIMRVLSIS
pyruvate kinase (PK) activity in human CD4+ T cell lysates, sequence (P14618 2-531 limits assumed): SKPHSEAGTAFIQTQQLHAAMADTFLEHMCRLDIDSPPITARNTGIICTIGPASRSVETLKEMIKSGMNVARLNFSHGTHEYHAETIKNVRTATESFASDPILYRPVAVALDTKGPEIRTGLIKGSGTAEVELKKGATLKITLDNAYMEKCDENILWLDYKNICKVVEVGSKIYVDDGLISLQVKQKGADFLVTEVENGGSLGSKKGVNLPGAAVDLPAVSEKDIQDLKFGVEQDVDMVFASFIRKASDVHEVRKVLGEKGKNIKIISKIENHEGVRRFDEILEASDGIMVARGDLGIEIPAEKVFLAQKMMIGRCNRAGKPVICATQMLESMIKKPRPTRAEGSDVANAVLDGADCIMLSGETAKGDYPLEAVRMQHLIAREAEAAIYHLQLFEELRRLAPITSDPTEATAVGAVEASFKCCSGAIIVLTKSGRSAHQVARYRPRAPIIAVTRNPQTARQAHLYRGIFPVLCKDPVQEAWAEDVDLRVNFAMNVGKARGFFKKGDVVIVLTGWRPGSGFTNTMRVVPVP

Consider `O=c1c2ccc(S(=O)(=O)c3cn[nH]c3)cc2cnn1Cc1ccn(C2CC2)n1` [Example 1, 6-((1H-pyrazol-4-yl)sulfonyl)-2-((1-cyclopropyl-1H-pyrazol-3-yl)methyl) phthalazin-1(2H)-one], for which the maximum response (Emax) in assay [1] (data from repeated experiments, normalised to DMSO and 5 μM TEPP-46) came to 107%; in assay [1] (percentage activation normalised to DMSO (LOW) and 5 μM TEPP-46 (HIGH)) it was 114%; in assay [2] (percentage activation normalised to DMSO (LOW) and 5 μM TEPP-46 (HIGH), read-out: hPKLR Emax), 134%. Also, the EC50 in assay [1] (data from repeated experiments, read-out: hPKM2 EC50) came to 107 nM; in assay [1] (recombinant His-tagged hPKM2, activation, 4-parameter logistic fit), 64.5 nM; in assay [2] (recombinant His-tagged hPKLR, activation, 4-parameter logistic fit) it was 10.3 nM; in assay [3] it was 82.5 nM.
